≈ marks a conversion by molar mass, not a printed value.

Common to all, as to assay type: functional
One test has as its system HT-29. The test is described as follows: Cytotoxicity against human HT-29 cells.
A further test deals with MCF7. The test is described as follows: Cytotoxicity against human MCF7 cells.
The next test deals with A549. The test is described as follows: Cytotoxicity against human A549 cells.
Another test concerns Bacillus subtilis. The test is described as follows: Antimicrobial activity against Bacillus subtilis at 100 ug/disk. The conditions noted are these: read-out: IZ.
The test system of the next test is Candida albicans. The test is described as follows: Antimicrobial activity against Candida albicans at 100 ug/disk. The conditions noted are these: read-out: IZ.

The GI50 is the concentration that inhibits growth by half. `C/N=C1N=C(/N=c2\[nH]c(Cc3ccc(OC)cc3)c(Cc3ccc(OC)c(OC)c3O)n2C)C(=O)N\1C`: the GI50 in the test on HT-29 stood at 6 µg/mL (≈ 11.8 µM); with MCF7 it was 3 µg/mL (≈ 5.92 µM); with A549 it was 6 µg/mL (≈ 11.8 µM).
`COc1ccc(Cc2nc(/N=C3\NC(=O)N(C)C3=O)n(C)c2Cc2ccc(OC)c(OC)c2O)cc1` [PYRONAAMIDINE]: the zone of inhibition at 100 µg/disc with Bacillus subtilis was found to be 10 mm; in the test on Candida albicans, 7 mm.

The values are drawn from ChEMBL document CHEMBL1146396, “(2E,9E)-pyronaamidine 9-(N-methylimine), a new imidazole alkaloid from the northern Mariana islands sponge Leucetta sp. cf. chagosensis” (1997).
